From patent US5219873A, “Compounds of 1,2,5,6-tetrahydropyridine which are useful as cholinergic agents” (Roussel UCLAF, priority 1987, dated 1993)
Read-outs that look alike come from different tables or passages of the source.

What was measured:
[1] = Hypothermic activity, male mice (body temperature); format: in vivo, mice (CD1 Charles Rivers); conditions: for ED (-1 C body temperature): Mus musculus, male mice, read-out: Effective dose (-1° C.)
Description: (§1) The products have been utilized in the hydrochloride form.
The test is carried out on male mice (CD1 Charles Rivers), weighing 25-30 g, fasting for 6 hours.
The temperature of the body is noted by means of a thermocouple placed in the rectum to about 1.5 cm and connected to an electric temperature recorder. […]
The degree of hypothermia is evaluated as the difference between the treated animals and the controls, and the dose necessary to reduce the body temperature by 1° C. is determined.
The duration of action of the products has been evaluated by using the dose which reduces the body temperature by 1° to 1.5° C.

[2] = test system: ileum isolated from guinea-pig; test: Test on ileum isolated from guinea-pig (contraction, agonist activity); format: cell-based; conditions: Cavia porcellus, Tyrode's solution, 37° C., read-out: pD2 (negative logarithm of the dose which produces 50% of the maximum effect) (converted)
Description: as §1
Pieces of the ileum are removed from guinea-pigs killed by decapitation. The isolated ileum is placed in 10 cm^3 of Tyrode's solution at 37° C. and aerated with a mixture of oxygen (95%) and carbon dioxide gas (5%). The contractions due to the products are recorded by means of a detector connected to a polygraph. The products to be tested are added at concentrations between 1.10^-3 M/l and 1.10^-8 M/l.
The products presenting a contraction effect are tested relative to atropine and hexamethonium to establish whether the activity is of the "muscarine" or "nicotine" type.
The agonist activity is expressed in pD2 (negative logarithm of the dose which produces 50% of the maximum effect.

[3] = Diarrhoeic activity, oral, male mice; format: in vivo, mice (CD1, Charles Rivers); conditions: Mus musculus, read-out: ED50 (dose which caused a diarrhoea in 50% of the animals)
Description: as §1
The test is carried out on male mice (CD1, Charles Rivers) weighing 25 to 30 g, fasting for 6 hours.
The control animals receive only the excipient.
After treatment, the animals are put separately in cages the base of which is covered with blotting paper and are put under observation for 30, 60, 120 and 180 minutes.
The sheets of absorbent paper are changed after each observation.
1: feces slightly soft with or without humid aureola.
2: feces slightly soft with presence of a well defined humid circle.
3: feces soft with presence of a large humid circle.
4: feces without consistency with presence of a very large humid circle.

[4] = test system: central cholinergic system; conditions: cited from earlier work
[5] = intravenous route; cited from earlier work
[6] = Acute toxicity, oral, male mice; design: species or system mice (CD1 Charles Rivers); conditions: mouse, in vivo, mortality during 7 days
Description: as §1
The test was carried out on male mice (CD1 Charles Rivers) of 22 to 24 g, fasting for 16 hours. […] The mortality is noted during the 7 days following the treatment.

Compound: COC(=O)C1=CCCN(C)C1 [Arecoline HBr, reference compound]
- Variation of the Body Temperature ([1]; 3.5 mg/kg s.c., 0 min): -0.1 °C
- Variation of the Body Temperature ([1]; 3.5 mg/kg s.c., 30 min): -1.5 °C
- Variation of the Body Temperature ([1]; 3.5 mg/kg s.c., 60 min): -0.1 °C
- Variation of the Body Temperature ([1]; 3.5 mg/kg s.c., 120 min): +0.2 °C
- Variation of the Body Temperature ([1]; 3.5 mg/kg s.c., 180 min): +0.2 °C
- Variation of the Body Temperature ([1]; 200 mg/kg p.o., 0 min): +0.1 °C
- Variation of the Body Temperature ([1]; 200 mg/kg p.o., 30 min): -1.1 °C
- Variation of the Body Temperature ([1]; 200 mg/kg p.o., 60 min): -1.0 °C
- Variation of the Body Temperature ([1]; 200 mg/kg p.o., 120 min): -0.2 °C
- Variation of the Body Temperature ([1]; 200 mg/kg p.o., 180 min): -0.1 °C

Compound: COC(=O)C1=CCCN(C)C1 [Arecoline, reference compound]
- EC50 [2]: 0.331 µM
- ED50 [3]: 35 mg/kg
- ED (-1 C body temperature) ([1]; po, per os): 194 mg/kg
- ED (-1 C body temperature) ([1]; sc, s.c.): 3 mg/kg
- activity by oral route [4]: very weak activity by oral route
- effect on patients having a memory defect [5]: positive effect on patients having a memory defect

Compound: CC(=NO)C1=CCCNC1 [Example 1, 3-acetyl-1,2,5,6-tetrahydropyridine-oxime]
- LD50 at 168 h [6]: 350 mg/kg
- EC50 [2]: 5.62 µM
- ED50 [3]: 5 mg/kg
- Variation of the Body Temperature ([1]; 10 mg/kg p.o., 0 min): 0 °C
- Variation of the Body Temperature ([1]; 10 mg/kg p.o., 30 min): -0.7 °C
- Variation of the Body Temperature ([1]; 10 mg/kg p.o., 60 min): -1.0 °C
- Variation of the Body Temperature ([1]; 10 mg/kg p.o., 120 min): -0.2 °C
- Variation of the Body Temperature ([1]; 10 mg/kg p.o., 180 min): +0.1 °C
- Variation of the Body Temperature ([1]; 10 mg/kg s.c., 0 min): 0 °C
- Variation of the Body Temperature ([1]; 10 mg/kg s.c., 30 min): -0.6 °C
- Variation of the Body Temperature ([1]; 10 mg/kg s.c., 60 min): -0.8 °C
- Variation of the Body Temperature ([1]; 10 mg/kg s.c., 120 min): -0.2 °C
- Variation of the Body Temperature ([1]; 10 mg/kg s.c., 180 min): 0 °C
- ED (-1 C body temperature) ([1]; po, per os): 9 mg/kg
- ED (-1 C body temperature) ([1]; sc, s.c.): 11 mg/kg

Compound: CON=C(C)C1=CCCN(C)C1 [Example 2, 1-methyl-3-acetyl-1,2,5,6-tetrahydropyridine-O-methyl-oxime]
- LD50 at 168 h [6]: 350 mg/kg
- EC50 [2]: 14.1 µM
- ED50 [3]: > 100 mg/kg
- Variation of the Body Temperature ([1]; 20 mg/kg p.o., 0 min): +0.1 °C
- Variation of the Body Temperature ([1]; 20 mg/kg p.o., 30 min): -1.3 °C
- Variation of the Body Temperature ([1]; 20 mg/kg p.o., 60 min): -1.3 °C
- Variation of the Body Temperature ([1]; 20 mg/kg p.o., 120 min): -0.9 °C
- Variation of the Body Temperature ([1]; 20 mg/kg p.o., 180 min): 0 °C
- Variation of the Body Temperature ([1]; 40 mg/kg s.c., 0 min): +0.1 °C
- Variation of the Body Temperature ([1]; 40 mg/kg s.c., 30 min): -1.0 °C
- Variation of the Body Temperature ([1]; 40 mg/kg s.c., 60 min): -1.4 °C
- Variation of the Body Temperature ([1]; 40 mg/kg s.c., 120 min): -1.1 °C
- Variation of the Body Temperature ([1]; 40 mg/kg s.c., 180 min): -0.8 °C
- ED (-1 C body temperature) ([1]; po, per os): 12 mg/kg
- ED (-1 C body temperature) ([1]; sc, s.c.): 25 mg/kg

Compound: CON=C(C)C1=CCCNC1 [Example 3, 3-acetyl-1,2,5,6-tetrahydropyridine-O-methyl-oxime]
- LD50 at 168 h [6]: 125 mg/kg
- EC50 [2]: 0.0316 µM
- ED50 [3]: 0.85 mg/kg
- Variation of the Body Temperature ([1]; 1 mg/kg p.o., 0 min): +0.1 °C
- Variation of the Body Temperature ([1]; 1 mg/kg p.o., 30 min): -1.1 °C
- Variation of the Body Temperature ([1]; 1 mg/kg p.o., 60 min): -1.0 °C
- Variation of the Body Temperature ([1]; 1 mg/kg p.o., 120 min): -0.1 °C
- Variation of the Body Temperature ([1]; 1 mg/kg p.o., 180 min): -0.1 °C
- Variation of the Body Temperature ([1]; 1 mg/kg s.c., 0 min): +0.1 °C
- Variation of the Body Temperature ([1]; 1 mg/kg s.c., 30 min): -1.0 °C
- Variation of the Body Temperature ([1]; 1 mg/kg s.c., 60 min): -0.8 °C
- Variation of the Body Temperature ([1]; 1 mg/kg s.c., 120 min): +0.1 °C
- Variation of the Body Temperature ([1]; 1 mg/kg s.c., 180 min): +0.1 °C
- ED (-1 C body temperature) ([1]; po, per os): 0.87 mg/kg
- ED (-1 C body temperature) ([1]; sc, s.c.): 0.91 mg/kg

Compound: CON=C(C)C1=CCCN(O)C1 [Example 12, 1-N-hydroxyl-3-acetyl-1,2,5,6-tetrahydropyridine-O-methyl-oxime]
- LD50 at 168 h [6]: 175 mg/kg
- EC50 [2]: 4.07 µM
- ED50 [3]: 1 mg/kg
- Variation of the Body Temperature ([1]; 1 mg/kg p.o., 0 min): 0 °C
- Variation of the Body Temperature ([1]; 1 mg/kg p.o., 30 min): -1.3 °C
- Variation of the Body Temperature ([1]; 1 mg/kg p.o., 60 min): -1.1 °C
- Variation of the Body Temperature ([1]; 1 mg/kg p.o., 120 min): 0 °C
- Variation of the Body Temperature ([1]; 1 mg/kg p.o., 180 min): 0 °C
- Variation of the Body Temperature ([1]; 1 mg/kg s.c., 0 min): -0.1 °C
- Variation of the Body Temperature ([1]; 1 mg/kg s.c., 30 min): -1.4 °C
- Variation of the Body Temperature ([1]; 1 mg/kg s.c., 60 min): -1.3 °C
- Variation of the Body Temperature ([1]; 1 mg/kg s.c., 120 min): +0.1 °C
- Variation of the Body Temperature ([1]; 1 mg/kg s.c., 180 min): 0 °C
- ED (-1 C body temperature) ([1]; po, per os): 0.77 mg/kg
- ED (-1 C body temperature) ([1]; sc, s.c.): 0.72 mg/kg
